Laboratory results taken from ChEMBL document CHEMBL4138119, “Anti-diabetic activity of fused PPARγ-SIRT1 ligands with limited body-weight gain by mimicking calorie restriction and decreasing SGK1 expression” (Eur J Med Chem, 2017).
Calls of active or inactive are those of the source. The rule behind the calls is not given here.

How the values were obtained:
[1] = Modulation of SGK1 mRNA expression in HCCD cells at 20 uM after 24 hrs by RT-PCR method relative to control; type: functional, Homo sapiens
Mus musculus [2] = assay: Toxicity in ob/ob mouse assessed as change in body weight at 3 mg/kg administered via oral gavage daily for 4 days measured on day 5 relative to control; type: organism-based; settings: in vivo, 96 h
[3] = molecular target: T1, Peroxisome proliferator-activated receptor alpha (Homo sapiens) (UniProt Q07869); assay: Transactivation of human Gal4-fused PPARalpha LBD expressed in African green monkey COS7 cells after 24 hrs by luciferase reporter gene assay relative to WY14643; type: cell-based
T1 sequence (whole entry): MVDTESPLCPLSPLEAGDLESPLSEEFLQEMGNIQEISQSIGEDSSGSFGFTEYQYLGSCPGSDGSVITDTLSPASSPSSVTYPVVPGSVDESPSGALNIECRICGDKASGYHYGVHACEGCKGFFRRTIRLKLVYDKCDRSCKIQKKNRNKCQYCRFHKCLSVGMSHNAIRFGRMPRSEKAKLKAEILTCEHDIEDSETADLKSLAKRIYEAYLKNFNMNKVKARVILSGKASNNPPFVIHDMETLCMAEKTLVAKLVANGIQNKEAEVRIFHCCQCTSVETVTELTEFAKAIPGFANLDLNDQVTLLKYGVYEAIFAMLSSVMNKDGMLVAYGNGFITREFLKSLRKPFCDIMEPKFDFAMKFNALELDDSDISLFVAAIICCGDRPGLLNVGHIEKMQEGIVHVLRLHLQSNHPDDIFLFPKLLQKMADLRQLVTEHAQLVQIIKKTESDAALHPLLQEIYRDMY

[4] = molecular target: T2, NAD-dependent protein deacetylase sirtuin-1 (Homo sapiens) (UniProt Q96EB6); assay: Activation of recombinant human SIRT1 at 10 uM using C-terminal AMC labeled Arg-His-Lys-Lys (Ac) as substrate after 30 mins by FLUOR DE LYS fluorescent assay relative to control
T2 sequence (whole entry): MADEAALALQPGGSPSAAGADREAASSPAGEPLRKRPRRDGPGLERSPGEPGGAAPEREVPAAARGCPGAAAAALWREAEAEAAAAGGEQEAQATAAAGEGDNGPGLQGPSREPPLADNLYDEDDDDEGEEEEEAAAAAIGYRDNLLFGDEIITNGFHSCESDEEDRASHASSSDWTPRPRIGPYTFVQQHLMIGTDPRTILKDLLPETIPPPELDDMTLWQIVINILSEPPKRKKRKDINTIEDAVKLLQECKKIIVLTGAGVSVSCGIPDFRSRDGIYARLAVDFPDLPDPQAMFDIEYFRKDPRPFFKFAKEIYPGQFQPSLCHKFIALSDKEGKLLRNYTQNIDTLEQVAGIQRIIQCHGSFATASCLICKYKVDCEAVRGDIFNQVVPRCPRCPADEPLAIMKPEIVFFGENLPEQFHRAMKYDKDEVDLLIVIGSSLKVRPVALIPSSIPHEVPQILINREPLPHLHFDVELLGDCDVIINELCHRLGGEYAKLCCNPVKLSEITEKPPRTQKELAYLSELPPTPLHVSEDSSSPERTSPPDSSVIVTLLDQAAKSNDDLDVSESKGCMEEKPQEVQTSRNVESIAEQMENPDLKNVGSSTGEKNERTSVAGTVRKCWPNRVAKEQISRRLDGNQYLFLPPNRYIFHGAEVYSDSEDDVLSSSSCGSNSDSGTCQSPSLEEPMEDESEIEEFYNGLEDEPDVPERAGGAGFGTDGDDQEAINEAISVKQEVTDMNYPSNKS

Mus musculus [5] = assay: Anti-diabetic activity in ob/ob mouse assessed as change in serum glucose levels at 8.4 uM/kg administered via oral gavage daily for 4 days measured on day 5 relative to control; type: functional
[6] = molecular target: T3, Peroxisome proliferator-activated receptor gamma (Homo sapiens, UniProt P37231); assay: Transactivation of human Gal4-fused PPARgamma LBD expressed in African green monkey COS7 cells after 24 hrs by luciferase reporter gene assay; type: cell-based; settings: read-out: EC50
T3 sequence (P37231 whole entry): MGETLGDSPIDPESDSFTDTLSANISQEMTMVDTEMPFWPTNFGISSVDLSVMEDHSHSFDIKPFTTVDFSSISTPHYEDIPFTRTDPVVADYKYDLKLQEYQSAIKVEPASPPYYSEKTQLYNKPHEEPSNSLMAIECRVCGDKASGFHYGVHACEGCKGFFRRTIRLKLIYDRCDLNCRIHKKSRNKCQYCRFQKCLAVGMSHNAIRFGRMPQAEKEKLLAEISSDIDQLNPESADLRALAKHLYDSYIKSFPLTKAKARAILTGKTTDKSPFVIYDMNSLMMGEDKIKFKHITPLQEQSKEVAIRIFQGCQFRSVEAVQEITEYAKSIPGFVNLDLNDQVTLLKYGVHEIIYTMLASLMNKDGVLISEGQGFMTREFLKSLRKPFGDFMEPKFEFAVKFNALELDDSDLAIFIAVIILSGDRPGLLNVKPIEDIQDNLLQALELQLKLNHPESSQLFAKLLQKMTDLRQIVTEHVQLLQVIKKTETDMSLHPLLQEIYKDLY

[7] = molecular target: T4, Peroxisome proliferator-activated receptor delta (Homo sapiens) (UniProt Q03181); assay: Transactivation of human PPARdelta at 10 uM
T4 sequence (whole entry): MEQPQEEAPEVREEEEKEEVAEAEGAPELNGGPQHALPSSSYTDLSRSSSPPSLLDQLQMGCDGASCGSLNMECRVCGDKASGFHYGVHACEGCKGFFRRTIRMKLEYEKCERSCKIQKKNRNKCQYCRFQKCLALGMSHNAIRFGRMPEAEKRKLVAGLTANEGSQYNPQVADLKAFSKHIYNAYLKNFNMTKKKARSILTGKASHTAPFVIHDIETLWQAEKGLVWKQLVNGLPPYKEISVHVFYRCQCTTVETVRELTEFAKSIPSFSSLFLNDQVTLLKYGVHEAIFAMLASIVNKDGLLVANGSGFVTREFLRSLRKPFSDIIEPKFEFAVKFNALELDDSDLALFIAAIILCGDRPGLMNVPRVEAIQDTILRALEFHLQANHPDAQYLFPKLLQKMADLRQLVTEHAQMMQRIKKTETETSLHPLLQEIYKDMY

[8] = molecular target: T5, Peroxisome proliferator-activated receptor alpha (Homo sapiens, UniProt Q07869); assay: Transactivation of human Gal4-fused PPARalpha LBD expressed in African green monkey COS7 cells after 24 hrs by luciferase reporter gene assay; type: cell-based
T5 sequence (Q07869 whole entry): T1 sequence (whole entry)

Mus musculus [9] = assay: Toxicity in ob/ob mouse assessed as change in body weight at 8.4 uM/kg administered via oral gavage daily for 4 days measured on day 5 relative to control; type: organism-based; settings: in vivo, 96 h, 8.4 µmol/kg
Mus musculus [10] = assay: Anti-diabetic activity in ob/ob mouse assessed as change in serum triglyceride levels at 8.4 uM/kg administered via oral gavage daily for 4 days measured on day 5 relative to control; type: functional
Mus musculus [11] = assay: Anti-diabetic activity in ob/ob mouse assessed as change in serum insulin levels at 8.4 uM/kg administered via oral gavage daily for 4 days measured on day 5 relative to control; type: functional

Compound	Activity [1] [%]	Activity (Mus musculus [2]) [%]	Emax [3] [%]	Activity [4] [%]	Activity (Mus musculus [5]) [%]	EC50 [6] [µM]	Activity [7]	EC50 [8] [µM]	Activity (Mus musculus [9]) [%]	Activity (Mus musculus [10]) [%]	Activity (Mus musculus [11]) [%]
COc1ccc(OC(=O)N(CC(=O)O)Cc2ccc(OCCc3nc(-c4ccccc4)oc3C)cc2)cc1 [MURAGLITAZAR]	178	206	84								
CN(CCOc1ccc(CC2SC(=O)NC2=O)cc1)c1ccccn1 (centres undefined) [ROSIGLITAZONE]	119	100		5							
Cc1oc(-c2ccccc2)nc1CCOc1ccc(C[C@H](Nc2ccccc2C(=O)c2ccccc2)C(=O)O)cc1 [FARGLITAZAR]	969	162	231								
CCOC(Cc1ccc(OCCn2c(=O)sc3cc(C(=O)/C=C/c4cc(OC)cc(OC)c4)ccc32)cc1)C(=O)O (centres undefined)	736		53	23	-27	1	inactive	10	150	-31	18
